# Source: patent US7544497B2, “Compositions for manipulating the lifespan and stress response of cells and organisms” (President and Fellows of Harvard College, priority 2003, dated 2009)
# Columns and labels:
# recombinant GST-Sir2 = recombinant GST-Sir2 (Saccharomyces cerevisiae, UniProt P06700); test: Sir2 deacetylation assay; type: biochemical, S. cerevisiae; conditions: in vitro dose-response
# Experimental: To investigate whether these compounds could stimulate sirtuins in vivo, we utilized S. cerevisiae, an organism in which the upstream regulators and downstream targets of Sir2 are relatively well understood.
# His6-tagged recombinant SIRT1 and GST-tagged recombinant Sir2 were prepared as previously described^26. From 0.1 to 1 μg of SIRT1 and 1.5 μg of Sir2 were used per deacetylation assay (in 50 μl total reaction) as previously described^26. SIRT1 assays and certain of those for Sir2 employed the p53-382 acetylated substrate (‘Fluor de Lys-SIRT1’, BIOMOL) rather than FdL.
# Themed compound libraries (BIOMOL) were used for primary and secondary screening. […] For water soluble compounds and negative controls, 1% v/v DMSO was added to the assay. […] HeLa cells were grown and the cellular deacetylation assays were performed and read, as above, but in full-volume 96-well microplates (Corning Costar 3595). […] Calculation of net fluorescence increases included subtraction of a blank value, which in the case of Sir2 was obtained by omitting the enzyme from the reaction and in the case of SIRT1 by adding an inhibitor (200 μM suramin or 1 mM nicotinamide) to the reaction prior to the acetylated substrate. […]
# rDNA recombination = test: Ribosomal DNA recombination frequency (loss of ADE2 marker); type: cell-based, S. cerevisiae; conditions: SIR2-dependent
# Human 293 cells = test: Survival of 293 cells (Coulter counter); type: cell-based; conditions: 50 micromolar
# Experimental: Human 293 were grown to exponential phase under standard conditions and subjected to a dose of compound (50 micromolar) for 96 hours. The number of live cells each time point was counted using a Coulter counter.
# recombinant SIR-2.1 = target: T1, recombinant SIR-2.1 (Caenorhabditis elegans, UniProt Q21921); test: SIR-2.1 deacetylation assay (Fluor de Lys)
# T1 sequence (Q21921 1-607): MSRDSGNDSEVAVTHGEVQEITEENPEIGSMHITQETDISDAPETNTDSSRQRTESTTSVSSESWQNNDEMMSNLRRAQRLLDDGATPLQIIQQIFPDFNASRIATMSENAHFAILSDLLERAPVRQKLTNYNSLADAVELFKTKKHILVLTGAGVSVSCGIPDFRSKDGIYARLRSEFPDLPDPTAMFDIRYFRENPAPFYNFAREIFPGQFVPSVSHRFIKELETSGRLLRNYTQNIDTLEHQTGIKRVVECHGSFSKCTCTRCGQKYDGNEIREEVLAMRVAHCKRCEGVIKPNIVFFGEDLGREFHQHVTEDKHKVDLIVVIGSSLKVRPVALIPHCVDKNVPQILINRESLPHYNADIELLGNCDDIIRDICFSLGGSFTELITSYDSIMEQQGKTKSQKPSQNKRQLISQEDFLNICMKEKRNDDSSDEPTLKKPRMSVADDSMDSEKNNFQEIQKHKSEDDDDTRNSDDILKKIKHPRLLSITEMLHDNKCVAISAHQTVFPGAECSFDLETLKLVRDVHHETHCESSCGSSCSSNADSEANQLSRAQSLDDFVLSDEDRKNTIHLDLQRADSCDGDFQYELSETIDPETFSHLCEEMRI
# Sequence of recombinant GST-Sir2 (P06700 whole entry): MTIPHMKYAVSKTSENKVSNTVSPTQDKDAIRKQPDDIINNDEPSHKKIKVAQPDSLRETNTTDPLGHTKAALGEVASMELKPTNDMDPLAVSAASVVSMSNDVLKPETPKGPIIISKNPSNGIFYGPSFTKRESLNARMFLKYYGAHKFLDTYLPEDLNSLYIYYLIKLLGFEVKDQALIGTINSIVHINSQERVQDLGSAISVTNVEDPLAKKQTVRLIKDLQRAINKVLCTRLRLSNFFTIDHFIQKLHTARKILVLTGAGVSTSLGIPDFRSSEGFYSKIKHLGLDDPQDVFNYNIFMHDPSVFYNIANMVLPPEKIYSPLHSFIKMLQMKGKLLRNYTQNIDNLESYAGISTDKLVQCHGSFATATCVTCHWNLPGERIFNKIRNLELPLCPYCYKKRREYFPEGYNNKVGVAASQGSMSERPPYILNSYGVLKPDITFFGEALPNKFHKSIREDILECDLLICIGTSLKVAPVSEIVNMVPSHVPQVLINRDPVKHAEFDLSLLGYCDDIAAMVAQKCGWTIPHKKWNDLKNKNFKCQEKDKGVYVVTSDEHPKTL
smiles,measurement,setting,value
"Oc1ccc(/C=C/c2cc(O)cc(O)c2)cc1 [Resveratrol, 3,5,4′-Trihydroxy-trans-stilbene]",concentrations at which inhibition of Sir2 was seen,recombinant GST-Sir2,greater than 100 μM
same,reduction of the frequency of rDNA recombination,rDNA recombination,~60%
same,Survival of 293 cells,Human 293 cells; 0 h,100%
same,Survival of 293 cells,Human 293 cells; 48 h,5%
same,Survival of 293 cells,Human 293 cells; 96 h,0%
same,effect on Km of SIR-2.1 for NAD+,"recombinant SIR-2.1; 100 μM resveratrol, 10 μM Fluor de Lys",lowered
same,"stimulation of deacetylation, SIR-2.1 (up to)","recombinant SIR-2.1; dose-dependent, 200 μM NAD+, 10 μM FdL",up to 2.5 fold
